Measured values: ChEMBL document CHEMBL5120942, “Designing a Small Fluorescent Inhibitor to Investigate Soluble Epoxide Hydrolase Engagement in Living Cells” (ACS Med Chem Lett, 2022)
The source made the active and inactive calls. No cut-off for these calls is given here.

What was measured:
[1] = biological target: T1, Bifunctional epoxide hydrolase 2 (Homo sapiens, UniProt P34913); assay: (§1) Inhibition of C-terminal domain of human sEH-H assessed as reduction in fluorescent naphthalene aldehyde formation using PHOME as substrate preincubated with enzyme for 30 mins followed by substrate addition and measured every minute for 45 mins by fluorescence based analysis
T1 sequence (P34913 whole entry): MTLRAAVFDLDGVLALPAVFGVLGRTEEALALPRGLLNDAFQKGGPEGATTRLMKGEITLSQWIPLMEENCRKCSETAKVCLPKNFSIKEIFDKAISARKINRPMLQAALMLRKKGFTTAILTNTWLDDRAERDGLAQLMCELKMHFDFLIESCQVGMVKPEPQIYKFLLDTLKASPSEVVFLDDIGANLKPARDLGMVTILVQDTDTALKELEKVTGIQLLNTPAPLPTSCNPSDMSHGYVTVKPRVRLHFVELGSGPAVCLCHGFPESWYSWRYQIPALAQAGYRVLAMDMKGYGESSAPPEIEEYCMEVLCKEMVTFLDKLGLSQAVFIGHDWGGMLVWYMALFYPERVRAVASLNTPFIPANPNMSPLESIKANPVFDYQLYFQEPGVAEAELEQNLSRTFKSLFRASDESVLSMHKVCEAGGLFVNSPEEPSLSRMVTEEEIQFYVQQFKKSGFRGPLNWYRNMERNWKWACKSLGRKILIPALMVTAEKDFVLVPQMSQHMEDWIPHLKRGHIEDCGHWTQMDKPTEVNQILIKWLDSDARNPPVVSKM

[2] = biological target: T1, Bifunctional epoxide hydrolase 2; assay: Displacement of (1R,3S)-N-(4-methoxy-2-(trifluoromethyl)benzyl)-3-((7-nitrobenzo[c][1,2,5]-oxadiazol-4-yl)amino)cyclohexane-1-carboxamide from NanoLuc-fused human sEH ( 1 to 555 residues) expressed in HEK293T cells incubated for 5 hrs by NanoBRET analysis; type: cell-based; settings: read-out: Ki(app)
[3] = biological target: T1, Bifunctional epoxide hydrolase 2; assay: Inhibition of human sEH BacMam transduced HEK293 cells assessed as reduction in 14,15-DHET formation using 14,15-EET as substrate preincubated for 30 mins followed by susbtrate addition and measured after 90 mins by fluorescence polarization assay; type: cell-based
[4] = biological target: T2, Bifunctional epoxide hydrolase 2 (Homo sapiens) (UniProt P34913); assay: as §1; settings: time 75.0 min, DDE = dose-dependent effect
T2 sequence (whole entry): T1 sequence (P34913 whole entry)

[5] = biological target: T3, Bifunctional epoxide hydrolase 2 (Mus musculus) (UniProt P34914); assay: (§2) Inhibition of C-terminal domain of mouse sEH-H assessed as reduction in fluorescent naphthalene aldehyde formation using PHOME as substrate preincubated with enzyme for 30 mins followed by substrate addition and measured every minute for 45 mins by fluorescence based analysis; settings: time 75.0 min, DDE = dose-dependent effect
T3 sequence (whole entry): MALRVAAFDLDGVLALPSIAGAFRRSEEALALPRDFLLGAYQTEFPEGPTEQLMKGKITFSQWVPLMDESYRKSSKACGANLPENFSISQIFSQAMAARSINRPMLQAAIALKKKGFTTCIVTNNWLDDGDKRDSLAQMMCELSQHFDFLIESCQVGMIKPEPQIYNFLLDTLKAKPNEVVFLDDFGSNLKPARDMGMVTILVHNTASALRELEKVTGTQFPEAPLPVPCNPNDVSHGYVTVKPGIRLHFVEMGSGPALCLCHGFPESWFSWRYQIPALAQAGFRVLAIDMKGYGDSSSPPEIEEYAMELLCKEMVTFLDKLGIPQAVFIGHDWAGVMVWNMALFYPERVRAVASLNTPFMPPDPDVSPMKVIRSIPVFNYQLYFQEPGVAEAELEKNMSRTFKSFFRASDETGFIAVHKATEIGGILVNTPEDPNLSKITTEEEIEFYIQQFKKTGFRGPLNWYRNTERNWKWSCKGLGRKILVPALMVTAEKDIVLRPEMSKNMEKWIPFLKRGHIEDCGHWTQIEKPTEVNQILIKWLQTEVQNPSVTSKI

[6] = biological target: T4, Bifunctional epoxide hydrolase 2 (Mus musculus, UniProt P34914); assay: as §2
T4 sequence (P34914 whole entry): T3 sequence (whole entry)

[7] = biological target: T2, Bifunctional epoxide hydrolase 2 (Homo sapiens); assay: Binding affinity to C-terminal domain of human sEH-H at 20 nM incubated for 1 hr by fluorescence polarization assay
[8] = biological target: T1, Bifunctional epoxide hydrolase 2; assay: Binding affinity to NanoLuc-fused human sEH ( 1 to 555 residues) expressed in HEK293T cells incubated for 5 hrs by NanoBRET analysis; type: cell-based
[9] = biological target: T2, Bifunctional epoxide hydrolase 2 (Homo sapiens); assay: Binding affinity to human full length sEH (1 to 555 residues) expressed in doxycycline-induced HEK293 cells at 300 nM incubated for 5 hrs by Hoechst 33342 staining based fluorescence microscopy; type: cell-based
[10] = biological target: T3, Bifunctional epoxide hydrolase 2 (Mus musculus); assay: Binding affinity to sEH in C57BL/6J mouse astrocytes at 10 uM incubated for 5 hrs by DAPI staining based immunocytochemistry; type: cell-based; settings: Astrocyte

Compound	IC50 [1] [nM]	Ki [2] [nM]	IC50 [3] [nM]	inhibition [4]	inhibition [5]	IC50 [6] [nM]	Activity [7]	Kd [8] [nM]	Activity [9]	Activity [10]
O=C(O)CCCCCCCCCCNC(=O)NC12CC3CC(CC(C3)C1)C2	2.6	16	34							
O=C(NCc1ccc(NS(=O)(=O)C2CC2)cc1C(F)(F)F)c1ccc2[nH]ccc2c1	29.4	583								
CNc1nc(C)nc(N[C@H]2CCC[C@@H](C(=O)NCc3ccc(C#N)cc3C(F)(F)F)C2)n1 [GSK2256294]		24								
COc1ccc(CNC(=O)[C@@H]2CCC[C@H](Nc3ccc([N+](=O)[O-])c4nonc34)C2)c(C(F)(F)F)c1	1.43			Dde	Dde	7.71	Active	6	Active	Active
